Reference: ChEMBL document CHEMBL3808378, “Enantioselective syntheses of both enantiomers of 9'-dehydroxyimperanene and 7,8-dihydro-9'-dehydroxyimperanene and the comparison of biological activity between 9-norlignans and dihydroguaiaretic acids” (Bioorg Med Chem Lett, 2016)
pIC50: −log10 of the molar value. Values after ≈ are worked out from the molar mass of the structure shown.

How the values were obtained:
Culex pipiens = assay: Antilarvicidal activity against Culex pipiens larvae after 24 hrs; assay type: functional
Alternaria alternata = assay: Antifungal activity against Alternaria alternata assessed as mycelial colony growth at 0.25 mM after 3 days by caliper analysis; assay type: functional
Fusarium solani = assay: Antifungal activity against Fusarium solani assessed as mycelial colony growth levels at 0.25 mM after 3 days by caliper analysis; assay type: functional
[1] = Antifungal activity against Bipolaris oryzae assessed as mycelial colony growth levels at 0.25 mM after 3 days by caliper analysis; assay type: functional
Colletotrichum lagenaria = assay: Antifungal activity against Colletotrichum lagenarium assessed as mycelial colony growth levels at 0.25 mM after 5 days by caliper analysis; assay type: functional
Bacillus subtilis = assay: Antibacterial activity against Bacillus subtilis subsp. subtilis NBRC 13719 after 24 hrs by 2 fold dilution method; assay type: functional; conditions: NBRC 13719, 24 h
Jonesia denitrificans = assay: Antibacterial activity against Listeria denitrificans JCM 11481 after 24 hrs by 2 fold dilution method; assay type: functional; conditions: JCM 11481, 24 h
Salmonella enterica = assay: Antibacterial activity against Salmonella choleraesuis subsp. choleraesuis JCM 6977 after 24 hrs by 2 fold dilution method; assay type: functional; conditions: JCM 6977, 24 h
HeLa = assay: Cytotoxicity against human HeLa cells assessed as reduction in cell viability after 48 hrs by WST-8 reduction assay; assay type: functional, cell-based
[2] = Cytotoxicity against human HL60 cells assessed as reduction in cell viability after 48 hrs by WST-8 reduction assay; assay type: functional, cell-based; conditions: HL-60, 48 h
Lolium multiflorum [3] = assay: Growth inhibition of Italian ryegrass assessed as reduction in root growth at 1 mM after 5 days; assay type: functional; conditions: 120 h, read-out: GI
Lolium multiflorum [4] = assay: Growth inhibition of Italian ryegrass assessed as reduction in shoot growth at 1 mM after 5 days; assay type: functional; conditions: 120 h, read-out: GI
[5] = Cytotoxicity against fall armyworm Sf9 cells assessed as reduction in cell viability after 48 hrs by WST-8 reduction assay; assay type: cell-based; conditions: Spodoptera frugiperda, Sf9, 48 h
[6] = Selectivity index, ratio of IC50 for fall armyworm sf9 cells to IC50 for Cytotoxicity against human HeLa cells; assay type: toxicity, cell-based; conditions: fall armyworm and human, read-out: Ratio IC50
[7] = Selectivity index, ratio of IC50 for fall armyworm Sf9 cells to IC50 for Cytotoxicity against human HL60 cells; assay type: toxicity, cell-based; conditions: fall armyworm and human, read-out: Ratio IC50

| Compound | LD50 (Culex pipiens) | Activity (Alternaria alternata) | Activity (Fusarium solani) | Activity [1] | Activity (Colletotrichum lagenaria) | MIC (Bacillus subtilis) | MIC (Jonesia denitrificans) | MIC (Salmonella enterica) | pIC50 (HeLa) | pIC50 [2] | inhibition of growth at 1000 µM (Lolium multiflorum [3]) | inhibition of growth at 1000 µM (Lolium multiflorum [4]) | pIC50 [5] | selectivity ratio [6] | selectivity ratio [7] |
| --- | --- | --- | --- | --- | --- | --- | --- | --- | --- | --- | --- | --- | --- | --- | --- |
| COc1cc(CC[C@@H](C)Cc2ccc(O)c(OC)c2)ccc1O | 9.9 ×10⁻⁵ M | 32.3% | 70.1% | 47.2% | 39.4% | 3130 µM (≈ 990 µg/mL) | 1560 µM (≈ 494 µg/mL) | 6250 µM (≈ 1980 µg/mL) | 4.68 | 4.92 | -7.01% | 2.2% | 4.60 | – | – |
| COc1cc(CC[C@H](C)Cc2ccc(O)c(OC)c2)ccc1O | 9.67 ×10⁻⁵ M | 44.4% | 95.4% | 46.4% | 43.1% | 3130 µM (≈ 990 µg/mL) | 1560 µM (≈ 494 µg/mL) | – | 5.21 | 5.25 | 13.3% | 19.9% | 4.92 | 2 | 2 |
| COc1cc(/C=C/[C@@H](C)Cc2ccc(O)c(OC)c2)ccc1O | 48 ×10⁻⁵ M | 43.3% | 96.1% | 57.6% | 67.8% | 6250 µM (≈ 1960 µg/mL) | 3130 µM (≈ 984 µg/mL) | – | 4.72 | 4.68 | 14.8% | 5.2% | 4.52 | – | – |
| COc1cc(/C=C/[C@H](C)Cc2ccc(O)c(OC)c2)ccc1O | 11 ×10⁻⁵ M | 66% | 95.7% | 66.4% | 49.4% | 6250 µM (≈ 1960 µg/mL) | 3130 µM (≈ 984 µg/mL) | – | 4.74 | 4.85 | 11.5% | 14.8% | 4.49 | – | – |
| COc1cc(C[C@H](C)[C@@H](C)Cc2ccc(O)c(OC)c2)ccc1O | 4.03 ×10⁻⁵ M | 38% | 34.5% | 49.9% | 20.1% | 1560 µM (≈ 515 µg/mL) | 390 µM (≈ 129 µg/mL) | 3130 µM (≈ 1030 µg/mL) | 4.62 | 4.49 | 51.9% | 17.8% | 4.74 | 1.3 | 1.3 |
| COc1cc(C[C@@H](C)[C@H](C)Cc2ccc(O)c(OC)c2)ccc1O [(-)-DIHYDROGUAIARETICACID] | 3.52 ×10⁻⁵ M | 32% | 36.5% | 49.9% | 33.8% | 1560 µM (≈ 515 µg/mL) | 390 µM (≈ 129 µg/mL) | – | 4.59 | 4.66 | 18.4% | 14.9% | 4.54 | – | – |
| COc1cc(C[C@@H](C)[C@@H](C)Cc2ccc(O)c(OC)c2)ccc1O [MESODIHYDROGUAIARETIC ACID] | 5.12 ×10⁻⁵ M | 30% | 45.8% | 53.7% | 26% | 1560 µM (≈ 515 µg/mL) | 1560 µM (≈ 515 µg/mL) | – | 4.55 | 4.39 | 68.8% | 20.9% | 4.77 | 1.3 | 1.3 |
